Consider eleven compounds from patent US10906915B2, “Substituted pyrazoloazepin-4-ones and their use as phosphodiesterase inhibitors” (LEO Pharma A/S, priority 2016, dated 2021).

SMILES strings stand for the structures.

Chain of human PDE4D catalytic domain (Q08499 380-740 limits assumed): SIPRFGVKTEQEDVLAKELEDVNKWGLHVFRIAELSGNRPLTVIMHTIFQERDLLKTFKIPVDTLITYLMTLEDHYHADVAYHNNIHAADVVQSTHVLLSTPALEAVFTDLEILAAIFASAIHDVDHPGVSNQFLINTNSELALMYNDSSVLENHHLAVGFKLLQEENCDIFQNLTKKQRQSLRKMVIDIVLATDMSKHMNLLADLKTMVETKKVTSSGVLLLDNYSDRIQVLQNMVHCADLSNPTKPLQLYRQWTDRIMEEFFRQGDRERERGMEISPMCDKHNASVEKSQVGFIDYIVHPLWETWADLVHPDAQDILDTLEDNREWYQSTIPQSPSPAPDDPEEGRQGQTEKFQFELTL

The target in this assay is human PDE4D catalytic domain (UniProt no. Q08499) (Homo sapiens (Human), UniProt Q08499). Nature of the assay: PDE4 assay (TR-FRET, FAM-cAMP cleavage). The assay is classed as biochemical. The note with it: human PDE4D catalytic domain; molar concentration giving 50% inhibition of substrate cleavage; read-out: PDE4 IC50 range. In a few lines:
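Read-out is time-resolved FRET from Tb donor to FAM-AMP captured on trivalent-metal nanoparticles added to stop the reaction. Substrate was a mix of plain and FAM-labelled cAMP, cleaved by human PDE4D catalytic domain ([…]) with titrated compound; IC50 ranges (nM) versus controls.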
In the case of `CCc1nn(C[C@@H](C)COC(=O)c2c(C)cccc2F)c2c1C(=O)NCC1(CCOCC1)C2` [Example 174, [(2R)-3-(3-ethyl-4-oxo-spiro[6,8-dihydro-5H-pyrazolo[4,3-c]azepine-7,4′-tetrahydropyran]-1-yl)-2-methyl-propyl] 2-fluoro-6-methyl-benzoate], the half-maximal inhibitory concentration (IC50) was less than 100 nM.
The value for `CCc1nn(C[C@@H](C)COC(=O)c2ccc(Cl)cc2)c2c1C(=O)NCC1(CCOCC1)C2` [Example 175, [(2R)-3-(3-ethyl-4-oxo-spiro[6,8-dihydro-5H-pyrazolo[4,3-c]azepine-7,4′-tetrahydropyran]-1-yl)-2-methyl-propyl] 4-chlorobenzoate] was less than 100 nM; that for `CCc1nn(C[C@@H](C)COC(=O)c2c(F)cccc2F)c2c1C(=O)NCC1(CCOCC1)C2` [Example 176, [(2R)-3-(3-ethyl-4-oxo-spiro[6,8-dihydro-5H-pyrazolo[4,3-c]azepine-7,4′-tetrahydropyran]-1-yl)-2-methyl-propyl] 2,6-difluorobenzoate] was less than 100 nM; that for `CCc1nn(C[C@@H](C)COC(=O)c2cc(F)ccc2F)c2c1C(=O)NCC1(CCOCC1)C2` [Example 177, [(2R)-3-(3-ethyl-4-oxo-spiro[6,8-dihydro-5H-pyrazolo[4,3-c]azepine-7,4′-tetrahydropyran]-1-yl)-2-methyl-propyl] 2,5-difluorobenzoate] was less than 100 nM.
The value for `CCc1nn(C[C@@H](C)COC(=O)c2ccc(F)c(F)c2)c2c1C(=O)NCC1(CCOCC1)C2` [Example 178, [(2R)-3-(3-ethyl-4-oxo-spiro[6,8-dihydro-5H-pyrazolo[4,3-c]azepine-7,4′-tetrahydropyran]-1-yl)-2-methyl-propyl] 3,4-difluorobenzoate] was less than 100 nM.
For `CCc1nn(C[C@@H](C)COC(=O)c2cccc(F)c2F)c2c1C(=O)NCC1(CCOCC1)C2` [Example 179, [(2R)-3-(3-ethyl-4-oxo-spiro[6,8-dihydro-5H-pyrazolo[4,3-c]azepine-7,4′-tetrahydropyran]-1-yl)-2-methyl-propyl] 2,3-difluorobenzoate] the value was less than 100 nM; for `CCc1nn(C[C@@H](C)COC(=O)c2ccc(C(C)=O)cc2)c2c1C(=O)NCC1(CCOCC1)C2` [Example 180, [(2R)-3-(3-ethyl-4-oxo-spiro[6,8-dihydro-5H-pyrazolo[4,3-c]azepine-7,4′-tetrahydropyran]-1-yl)-2-methyl-propyl] 4-acetylbenzoate], less than 100 nM; for `CCc1nn(C[C@@H](C)COC(=O)c2cccc(C(C)=O)c2)c2c1C(=O)NCC1(CCOCC1)C2` [Example 181, [(2R)-3-(3-ethyl-4-oxo-spiro[6,8-dihydro-5H-pyrazolo[4,3-c]azepine-7,4′-tetrahydropyran]-1-yl)-2-methyl-propyl] 3-acetylbenzoate], less than 100 nM.
Regarding `CCc1nn(C[C@@H](C)COC(=O)c2cc(F)cc(C#N)c2)c2c1C(=O)NCC1(CCOCC1)C2` [Example 182, [(2R)-3-(3-ethyl-4-oxo-spiro[6,8-dihydro-5H-pyrazolo[4,3-c]azepine-7,4′-tetrahydropyran]-1-yl)-2-methyl-propyl] 3-cyano-5-fluoro-benzoate], the IC50 is less than 100 nM.
Turning to `CCc1nn(C[C@@H](C)COC(=O)c2cc(C#N)ccc2F)c2c1C(=O)NCC1(CCOCC1)C2` [Example 183, [(2R)-3-(3-ethyl-4-oxo-spiro[6,8-dihydro-5H-pyrazolo[4,3-c]azepine-7,4′-tetrahydropyran]-1-yl)-2-methyl-propyl] 5-cyano-2-fluoro-benzoate], the IC50 is less than 100 nM.
`CCc1nn(C[C@@H](C)COC(=O)c2ccc(F)c(C#N)c2)c2c1C(=O)NCC1(CCOCC1)C2` [Example 184, [(2R)-3-(3-ethyl-4-oxo-spiro[6,8-dihydro-5H-pyrazolo[4,3-c]azepine-7,4′-tetrahydropyran]-1-yl)-2-methyl-propyl] 3-cyano-4-fluoro-benzoate]: the IC50 was less than 100 nM.
